Broadly, the IC50 is the concentration that gives 50% inhibition. One may read the half-life as the time needed for the level to fall by half in the phase considered. The term Tmax denotes the time from dosing to the highest level. A word on the Cmax: it is the maximum level reached in the sampled fluid or tissue.

Consider 12 compounds from US10934303B2, “Aryl ethene derivative and pharmaceutical composition containing same as active ingredient” (priority 2016, dated 2021).

One data set relates to ERRγ. Format: cell-based.
For another data set, the target named is hERG channel (Homo sapiens (Human), UniProt Q12809). Briefly: biochemical.
The next data set deals with GST-bound ERR alpha LBD (Homo sapiens (Human), UniProt P11474). Conditions: TR-FRET, PGC1a coactivator; read-out: Binding Assay, IC50 ERRα. Background: In TR-FRET formats the signal depends on donor and acceptor labels being close together.
GST-bound ERR alpha LBD, sequence (P11474 193-421): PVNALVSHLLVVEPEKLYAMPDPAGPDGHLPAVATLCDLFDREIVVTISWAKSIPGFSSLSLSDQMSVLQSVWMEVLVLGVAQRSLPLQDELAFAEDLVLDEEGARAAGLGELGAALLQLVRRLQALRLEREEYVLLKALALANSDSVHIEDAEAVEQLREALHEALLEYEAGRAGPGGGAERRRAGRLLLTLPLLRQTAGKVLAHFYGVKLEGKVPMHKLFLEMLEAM
Data set [1] concerns the target GST-bound ER alpha ligand-binding domain (LBD) (Homo sapiens (Human), UniProt P03372). Briefly: biochemical. To be noted: TR-FRET, beta-estradiol 4 nM as agonist; read-out: Binding Assay, IC50 ERα.
Procedure: (§2) The arylethene derivative of the present invention was sequentially added to a 384 well plate from a concentration of 10 μM to a final concentration of two-fold dilution. […] After all reagents were added, a reaction was carried out with gentle shaking at 20° C. for 1 hour, and after the reaction, a binding activity was measured by a TR-FRET method.
Data set [2] deals with GST-bound ERR gamma ligand-binding domain (LBD) (Homo sapiens (Human), UniProt P62508). The data set can be described thus: ERRγ binding assay (inverse agonist assay), TR-FRET. Conditions: TR-FRET, PGC1a coactivator; read-out: Binding Assay, IC50 ERRγ.
GST-bound ERR gamma ligand-binding domain (LBD), sequence (P62508 233-457): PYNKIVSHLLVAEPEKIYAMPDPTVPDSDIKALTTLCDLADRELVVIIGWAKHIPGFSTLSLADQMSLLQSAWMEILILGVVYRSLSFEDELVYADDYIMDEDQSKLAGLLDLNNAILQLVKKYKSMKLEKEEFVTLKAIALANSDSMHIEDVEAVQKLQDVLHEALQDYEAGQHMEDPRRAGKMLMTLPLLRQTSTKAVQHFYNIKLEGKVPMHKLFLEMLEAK
Procedure: 1) ERRγ Binding Assay (Inverse Agonist Assay)
as §2
The subject of the next data set is CAL-62/effluc tumor. To be noted: background statement; cited from earlier work.
For data set [3] the following is noted: 1 μM, 30 minutes, 37° C., NADPH.
Procedure: 2) Microsomal Stability Evaluation
(§3) Four liver microsomes (Human, Dog, Rat, Mouse 0.5 mg/ml) with a 0.1 M phosphate buffer solution (pH 7.4), and the arylethene derivative of the present invention were added to a concentration of 1 μM, culturing was performed at 37° C. for 5 minutes in advance, a NADPH regeneration system solution was added thereto, and culturing was performed at 37° C. for 30 minutes. Thereafter, in order to complete the reaction, an acetonitrile solution containing an internal standard material (chlorpropamide) was added thereto, centrifugation (14,000 rpm, 4° C.) was performed for 5 minutes, and a supernatant was injected into a LC-MS/MS system to analyze the substrate drug, thereby evaluating metabolism stability to the arylethene derivative of the present invention.
The conditions of data set [4]: 1 μM, 30 minutes, 37° C., NADPH. This is another data set of the same source.
Procedure: 2) Microsomal Stability Evaluation
as §3
A short description of the next data set: in vitro. Format: in vitro ADME. Also noted: Papp at 5 h: dose or concentration left out as unconfirmed. Conditions: PAMPA, PBS pH 7.4, 25° C., read-out: Permeability Pampa. On the technique in general: PAMPA measures passive passage across an artificial lipid membrane.
A short description of the next data set: in vivo. Format: in vivo. To be noted: rat.
The target in a further data set is CYP3A4 (Homo sapiens (Human), UniProt P08684). The data set can be described thus: Cytochrome P450 activity inhibition, CYP3A4. Format: in vitro ADME. To be noted: 10 μM, human liver microsomes, Midazolam substrate. An excerpt: (§1) 1) Cytochrome P450 (CYP450) Activity Inhibition Evaluation
CYP3A4, sequence (P08684 whole entry): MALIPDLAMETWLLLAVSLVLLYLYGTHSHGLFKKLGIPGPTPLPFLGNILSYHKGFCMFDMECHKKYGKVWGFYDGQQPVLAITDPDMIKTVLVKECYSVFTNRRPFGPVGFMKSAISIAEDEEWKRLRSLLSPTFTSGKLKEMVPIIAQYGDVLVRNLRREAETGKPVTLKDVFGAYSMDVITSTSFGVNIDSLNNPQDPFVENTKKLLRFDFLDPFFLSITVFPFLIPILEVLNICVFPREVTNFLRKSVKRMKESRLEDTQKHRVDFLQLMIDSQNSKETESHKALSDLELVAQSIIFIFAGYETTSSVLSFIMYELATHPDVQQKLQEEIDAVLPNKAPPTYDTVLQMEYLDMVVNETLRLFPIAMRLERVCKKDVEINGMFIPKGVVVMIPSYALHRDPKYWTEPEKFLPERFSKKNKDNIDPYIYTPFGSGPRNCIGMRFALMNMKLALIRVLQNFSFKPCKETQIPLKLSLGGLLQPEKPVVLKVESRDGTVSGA
In a further data set the test system is CAL62 cells. Briefly: Clonogenic assay with 131I. Format: cell-based. Conditions: CAL-62, combination with 131I.
The next data set deals with pERK1/2. Briefly: Western blot, phosphorylated ERK1/2 in CAL62 cells. Type of data set: cell-based. To be noted: MEK inhibitor. Background: A western blot detects proteins with antibodies after separation by electrophoresis.
Data set [5] concerns CAL-62 anaplastic thyroid cancer cell line. Format: cell-based.
The target of another data set is CYP1A2 (Homo sapiens (Human), UniProt P05177). Briefly: Cytochrome P450 activity inhibition, CYP1A2. Format: in vitro ADME. To be noted: 10 μM, human liver microsomes, Phenacetin substrate.
CYP1A2, sequence (P05177 whole entry): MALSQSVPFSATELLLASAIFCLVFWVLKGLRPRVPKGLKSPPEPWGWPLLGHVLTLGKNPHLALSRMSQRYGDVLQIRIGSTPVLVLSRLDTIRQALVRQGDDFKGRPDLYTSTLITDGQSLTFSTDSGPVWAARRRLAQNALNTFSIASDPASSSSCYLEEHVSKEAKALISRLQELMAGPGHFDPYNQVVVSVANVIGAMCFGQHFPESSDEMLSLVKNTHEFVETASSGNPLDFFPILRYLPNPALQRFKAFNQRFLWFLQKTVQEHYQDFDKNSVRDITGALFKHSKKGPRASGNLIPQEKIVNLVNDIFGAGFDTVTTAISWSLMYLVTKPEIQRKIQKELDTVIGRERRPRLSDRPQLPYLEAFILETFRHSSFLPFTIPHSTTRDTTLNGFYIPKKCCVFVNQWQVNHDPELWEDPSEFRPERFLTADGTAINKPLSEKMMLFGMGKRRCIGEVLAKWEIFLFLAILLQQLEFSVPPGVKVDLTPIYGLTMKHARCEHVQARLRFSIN
Excerpt: as §1

In a further data set the target is ERRβ (Homo sapiens, UniProt O95718). To be noted: TR-FRET, PGC1a coactivator; read-out: Binding Assay, IC50 ERRβ.
ERRβ, sequence (O95718 whole entry, looked up): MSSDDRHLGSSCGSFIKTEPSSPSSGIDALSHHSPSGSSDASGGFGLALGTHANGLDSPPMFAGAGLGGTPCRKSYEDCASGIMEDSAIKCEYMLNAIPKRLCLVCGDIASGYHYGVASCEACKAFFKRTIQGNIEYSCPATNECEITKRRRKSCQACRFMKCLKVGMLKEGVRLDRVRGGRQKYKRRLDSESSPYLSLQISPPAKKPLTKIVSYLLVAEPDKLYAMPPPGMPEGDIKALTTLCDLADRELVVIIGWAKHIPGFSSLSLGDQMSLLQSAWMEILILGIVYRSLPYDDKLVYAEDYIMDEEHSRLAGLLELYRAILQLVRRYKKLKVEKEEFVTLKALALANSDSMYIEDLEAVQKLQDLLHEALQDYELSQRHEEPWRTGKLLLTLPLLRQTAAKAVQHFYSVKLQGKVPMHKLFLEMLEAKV
In a further data set the target is CYP2C19 (Homo sapiens (Human), UniProt P33261). The data set can be described thus: Cytochrome P450 activity inhibition, CYP2C19. Type of data set: in vitro ADME. To be noted: 10 μM, human liver microsomes, S-mephenytoin substrate.
CYP2C19, sequence (P33261 whole entry): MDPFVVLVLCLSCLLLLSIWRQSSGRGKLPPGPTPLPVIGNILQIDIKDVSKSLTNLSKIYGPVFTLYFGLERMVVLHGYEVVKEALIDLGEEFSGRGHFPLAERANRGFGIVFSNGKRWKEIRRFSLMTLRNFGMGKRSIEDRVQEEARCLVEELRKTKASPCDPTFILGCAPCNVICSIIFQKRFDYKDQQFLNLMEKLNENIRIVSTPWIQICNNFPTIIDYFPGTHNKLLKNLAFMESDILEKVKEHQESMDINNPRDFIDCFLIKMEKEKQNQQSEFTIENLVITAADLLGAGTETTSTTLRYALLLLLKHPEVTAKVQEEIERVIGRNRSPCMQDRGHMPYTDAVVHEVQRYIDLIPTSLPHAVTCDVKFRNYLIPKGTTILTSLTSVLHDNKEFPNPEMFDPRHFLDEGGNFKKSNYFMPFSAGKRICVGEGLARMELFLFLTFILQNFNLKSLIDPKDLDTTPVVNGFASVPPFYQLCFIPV
Excerpt: as §1

A further data set deals with CYP2D6 (Homo sapiens (Human), UniProt P10635). The data set can be described thus: Cytochrome P450 activity inhibition, CYP2D6. To be noted: 10 μM, human liver microsomes, Dextromethorphan substrate. Type of data set: in vitro ADME.
CYP2D6, sequence (P10635 whole entry): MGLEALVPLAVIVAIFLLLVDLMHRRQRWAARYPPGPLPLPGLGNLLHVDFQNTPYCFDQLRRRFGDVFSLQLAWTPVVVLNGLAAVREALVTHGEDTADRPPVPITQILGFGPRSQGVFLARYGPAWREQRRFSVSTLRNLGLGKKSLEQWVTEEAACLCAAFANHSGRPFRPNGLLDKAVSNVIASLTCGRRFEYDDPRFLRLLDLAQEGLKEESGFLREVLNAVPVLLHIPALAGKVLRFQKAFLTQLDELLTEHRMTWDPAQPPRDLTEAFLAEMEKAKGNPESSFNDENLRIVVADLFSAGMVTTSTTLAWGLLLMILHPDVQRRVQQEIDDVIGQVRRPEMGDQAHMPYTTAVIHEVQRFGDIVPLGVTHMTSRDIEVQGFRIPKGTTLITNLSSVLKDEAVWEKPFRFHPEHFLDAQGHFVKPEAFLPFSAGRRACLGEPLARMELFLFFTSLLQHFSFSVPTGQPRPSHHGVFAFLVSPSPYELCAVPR
Excerpt: as §1

A further data set has as its target CYP2C9 (Homo sapiens (Human), UniProt P11712). Briefly: Cytochrome P450 activity inhibition, CYP2C9. Format: in vitro ADME. Conditions: 10 μM, human liver microsomes, Diclofenac substrate.
Excerpt: as §1

The conditions of data set [6]: 1 μM, 30 minutes, 37° C., NADPH. The source holds these as a separate data set.
Procedure: 2) Microsomal Stability Evaluation
as §3
For data set [7] the following is noted: 1 μM, 30 minutes, 37° C., NADPH. The source holds these as a separate data set.
Procedure: 2) Microsomal Stability Evaluation
as §3
Setting [8] is: activity relative to reference compound GSK5182, 10 μM.

SMILES strings stand for the structures. Like-named read-outs stand apart in the source and are kept apart here.

GST-bound ER alpha ligand-binding domain (LBD), sequence (P03372 whole entry, looked up, the tested form may be a part): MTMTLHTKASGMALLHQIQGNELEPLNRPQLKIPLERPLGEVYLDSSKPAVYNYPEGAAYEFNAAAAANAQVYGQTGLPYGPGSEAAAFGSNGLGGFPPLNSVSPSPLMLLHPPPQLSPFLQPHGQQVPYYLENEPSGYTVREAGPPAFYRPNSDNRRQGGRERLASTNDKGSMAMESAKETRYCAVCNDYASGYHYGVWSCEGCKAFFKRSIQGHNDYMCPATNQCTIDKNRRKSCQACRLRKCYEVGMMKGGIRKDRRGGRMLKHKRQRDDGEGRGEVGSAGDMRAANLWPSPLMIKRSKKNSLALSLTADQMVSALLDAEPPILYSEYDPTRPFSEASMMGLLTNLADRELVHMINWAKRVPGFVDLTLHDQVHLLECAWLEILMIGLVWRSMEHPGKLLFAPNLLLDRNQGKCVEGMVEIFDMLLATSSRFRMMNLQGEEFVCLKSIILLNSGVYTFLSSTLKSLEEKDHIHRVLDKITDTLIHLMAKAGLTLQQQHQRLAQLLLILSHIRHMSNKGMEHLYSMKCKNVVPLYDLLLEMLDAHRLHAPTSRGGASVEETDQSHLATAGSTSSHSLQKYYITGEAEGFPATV
CYP2C9, sequence (P11712 whole entry): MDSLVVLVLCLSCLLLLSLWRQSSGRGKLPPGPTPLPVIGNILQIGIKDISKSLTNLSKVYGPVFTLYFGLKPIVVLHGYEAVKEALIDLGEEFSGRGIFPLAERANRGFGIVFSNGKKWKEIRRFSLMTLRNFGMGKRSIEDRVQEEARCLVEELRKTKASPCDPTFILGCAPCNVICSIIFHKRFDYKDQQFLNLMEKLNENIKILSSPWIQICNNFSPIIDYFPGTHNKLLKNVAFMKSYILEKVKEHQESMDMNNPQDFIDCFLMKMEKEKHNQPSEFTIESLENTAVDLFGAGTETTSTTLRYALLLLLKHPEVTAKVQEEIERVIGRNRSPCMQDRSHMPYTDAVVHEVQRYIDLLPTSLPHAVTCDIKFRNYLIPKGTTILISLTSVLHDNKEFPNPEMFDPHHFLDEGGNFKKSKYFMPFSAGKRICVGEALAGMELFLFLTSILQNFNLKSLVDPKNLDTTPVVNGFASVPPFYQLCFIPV
Procedure for ERRβ: as §2
Procedure for GST-bound ERR alpha LBD: as §2
Procedure for in vitro: 3) Parallel Artificial Membrane Permeability Assay (PAMPA) Evaluation
PAMPA is a method which has been developed for testing cell membrane permeability of a material in a test tube, and has been performed using a lipid tri-layer PVDF membrane available from Corning Gentest (NY, US), the used reagents were all purchased from Sigma (MO, US). First, a test material is diluted in PBS (pH 7.4) to a final concentration of 10 mM, 300 mL of the solution is added to the bottom well of a 96-transwell equipped with a PVDF membrane, and 200 mL of PBS is added to the upper well. Then, a plate is reacted at 25° C. for 5 hours, 20 mL of the solution in each well is transferred to a new container, and 80 mL of acetonitrile containing an internal standard material (4 mM chloropropamide) is added thereto. A concentration of the material in the solution is analyzed using LC-MS/MS (ThermoFisher Scientific, MO, US), and the transmittance of the material is calculated according to the equation reported in the reference document.

In the case of `OCCC/C(=C(\c1ccc(O)cc1)c1ccc(OCCN2CCCCC2)cc1)c1ccccc1` [Compound 6d], the “Functional Assay, Cpds/Ref 5182” value in the data set with ERRγ stood at 1.69. Further, the “Functional Assay at 10 μM (% of control), Cpds” value with ERRγ (10 μM, 24 hours, AD293) is 5.2 % of control. The IC50 against hERG channel is above 30000 nM; on GST-bound ERR alpha LBD, above 10000 nM; in [1], 262 nM; in data set [2] it was 93 nM.

Consider `CN1CCC[C@@H]1COc1ccc(/C(=C(/CCCO)c2ccccc2)c2ccc(O)cc2)cc1` [Compound 6i], for which, in the data set on ERRγ, the “Functional Assay at 10 μM (% of control), Cpds” value was 5 % of control and the “Functional Assay, Cpds/Ref 5182” value came out at 1.62. For the same compound, at hERG channel, the IC50 is above 30000 nM.

Take `CN(C)CCOc1ccc(/C(=C(/CCCO)c2ccccc2)c2ccc(O)cc2)cc1` [GSK5182, (Z)-4-(1-(4-(2-(dimethylamino)ethoxy)phenyl)-5-hydroxy-2-phenylpent-1-en-1-yl)phenol, reference compound]: the “radioiodine uptake in the tumor, ATC mouse tumor model” value in the data set on CAL-62/effluc tumor was “not increased”. Further, the “MS(Microsomal Stability) (%) human” value in [3] is recorded as 42.8-45.1%. Besides, in data set [4], the “MS(Microsomal Stability) (%) rat” value is recorded as 26.0-29.1%. In addition, in the data set “in vitro”, the Papp at 5 h lay within 0.11 to 0.82 ×10⁻⁶ cm/s. Moreover, the half-life in the data set “in vivo” (in vivo, IV, 1 mg/kg) was 2.3 h. Moreover, the Vd in the data set “in vivo” (in vivo, IV, 1 mg/kg, read-out: Vss) is 9.1 L/kg. In addition, in “in vivo” (in vivo, PO, 10 mg/kg, read-out: Cl(observed)/F), the CL/F came to 134 mL/min/kg. For the same compound, the Tmax in the data set “in vivo” (in vivo, PO, 10 mg/kg, read-out: Tmax) was determined as 1.9 h. Further, in the data set “in vivo” (IV, 1 mg/kg), the AUCINF stood at 0.94 μMh, the AUCall is reported as 0.89 μMh and the “Cl(observed)/F” value stood at 44 mL/min/kg. In “in vivo” (PO, 10 mg/kg), this compound gave an AUCINF of 0.78 μMh, an AUCall of 0.68 μMh and a BA of 8.4%. Moreover, the concentration in the data set “in vivo” (in vivo, po, 10 mg/kg) peaked (Cmax) at 130 nM. The “CYP inhibition (% of control) 3A4” value at CYP3A4 was 83 % of control. Also, in the data set on CAL62 cells, the “colony-formability, combining 131I and GSK5182” value is “about 58.5±7.4%”.

Turning to `N#CC(=C(/N)Sc1ccccc1N)/C(C#N)=C(\N)Sc1ccccc1N` [Compound U0126], the “inhibition of relative increase of phosphorylated ERK1 and ERK2 by compound 18a” value with pERK1/2 was “completely inhibited”. In addition, the “inhibition of radioactive iodine uptake increase by compound 18a” value in [5] (MEK inhibitor pre-incubation 30 minutes) was “completely inhibited”.

`OCCC/C(=C(\c1ccc(O)cc1)c1ccc(OCCN2CCC[C@@H]2CO)cc1)c1ccccc1` [Compound 38c]: the “CYP inhibition (% of control) 1A2” value at CYP1A2 is 79.2 % of control. In addition, in the data set with ERRγ, the “Functional Assay, Cpds/Ref 5182” value was 0.99. The “Functional Assay at 10 μM (% of control), Cpds” value in the data set with ERRγ (10 μM, 24 hours, AD293) is on record as 4.06 % of control. Further, the IC50 on ERRβ is above 10000 nM; on GST-bound ERR alpha LBD, above 10000 nM; in data set [1], 408 nM; in data set [2] it was 91 nM. Further, the “CYP inhibition (% of control) 2C19” value at CYP2C19 is 58.8 % of control. Besides, the “CYP inhibition (% of control) 2D6” value on CYP2D6 was 54.3 % of control. For the same compound, at CYP3A4, the “CYP inhibition (% of control) 3A4” value was 61.5 % of control. The “CYP inhibition (% of control) 2C9” value on CYP2C9 is listed as 55.3 % of control.

In the case of `COc1cccc(-c2cc(=O)c3ccccc3o2)c1N` [PD98059], in the data set with pERK1/2, the “inhibition of relative increase of phosphorylated ERK1 and ERK2 by compound 18a” value is “completely inhibited”. Further, the “inhibition of radioactive iodine uptake increase by compound 18a” value in data set [5] is listed as “completely inhibited”.

Regarding `OCCC/C(=C(\c1ccc(O)cc1)c1ccc(OCCN2CC2)cc1)c1ccccc1` [Compound 6f], in the data set with ERRγ (10 μM, 24 hours, AD293), the “Functional Assay at 10 μM (% of control), Cpds” value was 6.75 % of control. For the same compound, in the data set with ERRγ (setting [8]), the “Functional Assay, Cpds/Ref 5182” value came to 2.19. The half-inhibitory concentration (IC50) against hERG channel was above 30000 nM; at GST-bound ERR alpha LBD it was above 10000 nM; in data set [1], 296 nM; in data set [2], 59 nM.

Regarding `OCCC/C(=C(\c1ccc(O)cc1)c1ccc(OCCN2CC3CC3C2)cc1)c1ccccc1` (stereo not drawn) [Compound 38a, (Z)-4-(1-(4-(2-(3-azabicyclo[3.1.0]hexan-3-yl)ethoxy)phenyl)-5-hydroxy-2-phenylpent-1-en-1-yl)phenol], in the data set with ERRγ (10 μM, 24 hours, AD293), the “Functional Assay at 10 μM (% of control), Cpds” value is given as 1.45 % of control. For the same compound, the “Functional Assay, Cpds/Ref 5182” value in the data set with ERRγ (setting [8]) is given as 1.42. In addition, the IC50 on ERRβ was 8130 nM; against hERG channel, 16100 nM; at GST-bound ERR alpha LBD, above 10000 nM; in data set [1], 437 nM; in data set [2] it was 79 nM.

As for `Nc1ccc(/C(=C(\CCCO)c2ccccc2)c2ccc(C3CCN(C4CC4)CC3)cc2)cc1` [Compound 26d], the “CYP inhibition (% of control) 1A2” value on CYP1A2 was >100 % of control. For the same compound, at hERG channel, the midpoint of inhibition, the IC50, lay at 26000 nM. Also, the “CYP inhibition (% of control) 2C19” value on CYP2C19 was >100 % of control. Moreover, the “MS(Microsomal Stability) (%) human” value in data set [3] is 77.5%. For the same compound, the “MS(Microsomal Stability) (%) mouse” value in data set [6] came to 38.3%. The “MS(Microsomal Stability) (%) rat” value in data set [4] is on record as 72.2%. The Papp at 5 h in the data set “in vitro” was 1.04 ×10⁻⁶ cm/s. In addition, the “CYP inhibition (% of control) 2D6” value at CYP2D6 is reported as 86.1 % of control. Also, at CYP3A4, the “CYP inhibition (% of control) 3A4” value is 57.3 % of control. Also, the “MS(Microsomal Stability) (%) dog” value in [7] turned out to be 51.5%. Moreover, the “CYP inhibition (% of control) 2C9” value at CYP2C9 was 96.6 % of control.

For the compound `OCCC/C(=C(\c1ccc(O)cc1)c1ccc(OCCN2C[C@H]3C[C@H]3[C@H]2CO)cc1)c1ccccc1` [Compound 38d], on CYP1A2, the “CYP inhibition (% of control) 1A2” value is 79.2 % of control. The “Functional Assay at 10 μM (% of control), Cpds” value in the data set with ERRγ (10 μM, 24 hours, AD293) is 3.16 % of control. Moreover, the “Functional Assay, Cpds/Ref 5182” value with ERRγ (setting [8]) turned out to be 0.77. The IC50 is 8800 nM at ERRβ, 276 nM in data set [1] and 83 nM in [2]. The “CYP inhibition (% of control) 2C19” value on CYP2C19 is recorded as 58.8 % of control. In addition, the “MS(Microsomal Stability) (%) human” value in data set [3] turned out to be 6.9%. Also, the “MS(Microsomal Stability) (%) mouse” value in [6] is on record as 11.8%. Also, in data set [4], the “MS(Microsomal Stability) (%) rat” value is reported as 11.7%. Also, the “CYP inhibition (% of control) 2D6” value on CYP2D6 is on record as 54.3 % of control. Moreover, the “CYP inhibition (% of control) 3A4” value on CYP3A4 is reported as 57.6 % of control. In addition, the “CYP inhibition (% of control) 2C9” value on CYP2C9 was 55.3 % of control.

`CN1CCN(c2ccc(/C(=C(/CCCO)c3ccccc3)c3ccc(N)cc3)cc2)CC1` [Compound 26a, (Z)-5-(4-aminophenyl)-5-(4-(4-methylpiperazin-1-yl)phenyl)-4-phenylpent-4-en-1-ol]: the “CYP inhibition (% of control) 1A2” value on CYP1A2 is reported as >100 % of control. In addition, the “Functional Assay at 10 μM (% of control), Cpds” value in the data set on ERRγ (10 μM, 24 hours, AD293) is 2.66 % of control. In addition, the “Functional Assay, Cpds/Ref 5182” value with ERRγ (setting [8]) was found to be 0.84. The same compound gave an IC50 on hERG channel above 30000 nM. Further, the “CYP inhibition (% of control) 2C19” value at CYP2C19 was 89 % of control. The “MS(Microsomal Stability) (%) human” value in data set [3] is given as 72.3%. Further, the “MS(Microsomal Stability) (%) rat” value in [4] is given as 46.7%. In addition, the Papp at 5 h in “in vitro” worked out at 1.58 ×10⁻⁶ cm/s.

As for `[K+].[O-][Cl+3]([O-])([O-])[O-]` [KClO4], the “block of radioactive iodine uptake increased in compound 18a-treated cells” value in [5] (co-incubated with compound 18a-treated CAL62 cells, 300 μM KClO4) is listed as “completely blocks”.
